# Patent publication US20260028354A1, “TETRAHYDRONAPHTHALENE DERIVATIVES AS ESTROGEN RECEPTOR DEGRADERS” (REGENT OF THE UNIVERSITY OF MICHIGAN, priority 2022, published 2026)
# Where two headings read alike, the source gives them in different places.
# Assays:
# [1] = Cell growth assay (WST-8) for "B" compounds; type: cell-based; conditions: T47D, read-out: Cell growth Inhibition in T47D cell line IC50
# Method in brief: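 Four-day compound exposure of cells plated at 1500/well the day before. Read-out is WST-8 (10%, 2.5 h, 37 °C) absorbance at 450 nm, normalized to vehicle control over three independent repeats.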
# ER = ER (Homo sapiens (Human), UniProt P03372); experiment: In-cell western blot analysis of ER for "B" compounds; type: cell-based; conditions: 16 hours, read-out: ICW DC50
# Chain of ER (P03372 whole entry): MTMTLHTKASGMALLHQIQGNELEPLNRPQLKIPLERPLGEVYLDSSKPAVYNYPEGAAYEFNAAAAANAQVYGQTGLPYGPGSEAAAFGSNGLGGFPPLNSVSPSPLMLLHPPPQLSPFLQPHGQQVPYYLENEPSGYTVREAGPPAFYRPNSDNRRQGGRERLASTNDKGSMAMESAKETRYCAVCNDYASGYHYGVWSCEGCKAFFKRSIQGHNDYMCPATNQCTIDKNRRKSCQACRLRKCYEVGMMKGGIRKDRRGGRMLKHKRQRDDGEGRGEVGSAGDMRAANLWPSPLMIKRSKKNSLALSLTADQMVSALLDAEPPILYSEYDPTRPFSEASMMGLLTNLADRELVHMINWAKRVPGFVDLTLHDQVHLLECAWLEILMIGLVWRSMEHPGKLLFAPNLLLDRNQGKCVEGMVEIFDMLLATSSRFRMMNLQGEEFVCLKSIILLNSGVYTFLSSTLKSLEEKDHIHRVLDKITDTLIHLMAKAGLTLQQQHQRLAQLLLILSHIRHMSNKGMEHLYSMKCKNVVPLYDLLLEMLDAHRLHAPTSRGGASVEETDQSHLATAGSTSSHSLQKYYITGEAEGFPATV
# Description: R^T 2h, gentle shaking. Negative control: cells plus secondary antibodies (no primary antibodies); e, wash x 4 with PBS+0.05-0.1% Tween 20, gentel shaking; f, anti-rabbit-680 and anti-mouse-800 (both 1:1000 in LiCor block+0.05% Tween20, R^T 1h, gentle shaking, no light. LI-COR: 0.2% to reduce background; g, wash×4 with PBS+0.05% Tween 20, gental shaking; h, add 100 μL or 25 μL of PBS to each well and read on CLX plate reader. The relative ER percentage in treated cells were obtained by comparing the values of treated wells to those in untreated and DMSO-treated wells as 100%.
SMILES,DC50 (ER) [nM],IC50 [1] [nM],IC50 ([1]; T47D cell line) [nM]
"O=C1CCC(N2Cc3cc4c(cc3C2=O)OC[C@@H]2CN(CC(=O)N3CCC5(CC3)CCN(c3ncc([C@@H]6c7ccc(O)cc7CC[C@@H]6c6ccccc6)cn3)CC5)CCN42)C(=O)N1 (mixture of isomers) [Compound B149, 3-((S)-3-(2-(9-(5-(cis-6-hydroxy-2-phenyl-1,2,3,4-tetrahydronaphthalen-1-yl)pyrimidin-2-yl)-3,9-diazaspiro[5.5]undecan-3-yl)-2-oxoethyl)-8-oxo-1,2,3,4,4a,5,8,10-octahydro-9H-pyrazino[1′,2′: 4,5][1,4]oxazino[2,3-f]isoindol-9-yl)piperidine-2,6-dione]",10 to 100,< 1,
"CN(CC1CC2(CCN(c3ccc([C@@H]4c5ccc(O)cc5CC[C@@H]4c4ccccc4)cc3)CC2)C1)[C@H]1C[C@H]2COc3cc4c(cc3N2C1)C(=O)N(C1CCC(=O)NC1=O)C4=O (stereo partly drawn) [Compound B331, (2S,3aS)-8-(2,6-dioxopiperidin-3-yl)-2-(((7-(4-((1R,2S)-6-hydroxy-2-phenyl-1,2,3,4-tetrahydronaphthalen-1-yl)phenyl)-7-azaspiro[3.5]nonan-2-yl)methyl)(methyl)amino)-2,3,3a,4-tetrahydro-1H,7H-pyrrolo[1′,2′:4,5][1,4]oxazino[2,3-f]isoindole-7,9(8H)-dione]",> 100,,
"O=C1CC[C@H](N2Cc3c(ccc4c3OC[C@H]3CN(C[C@H]5CC[C@H](Nc6ccc([C@@H]7c8ccc(O)cc8CC[C@@H]7c7ccccc7)cc6)CC5)CCN43)C2=O)C(=O)N1 [Compound B353, (S)-3-((R)-7-(((1R,4R)-4-((4-((1R,2S)-6-hydroxy-2-phenyl-1,2,3,4-tetrahydronaphthalen-1-yl)phenyl)amino)cyclohexyl)methyl)-1-oxo-1,3,5,5a,6,7,8,9-octahydro-2H-pyrazino[1′,2′:4,5][1,4]oxazino[2,3-e]isoindol-2-yl)piperidine-2,6-dione]",10 to 100,,
"O=C1CC[C@H](N2Cc3cc4c(cc3C2=O)OC[C@@H]2CN(C[C@H]3CC[C@@H](Nc5ccc([C@@H]6c7ccc(O)cc7CC[C@@H]6c6ccccc6)cc5)CC3)CCN42)C(=O)N1 [Compound B354, (S)-3-((S)-3-(((1R,4S)-4-((4-((1R,2S)-6-hydroxy-2-phenyl-1,2,3,4-tetrahydronaphthalen-1-yl)phenyl)amino)cyclohexyl)methyl)-8-oxo-1,2,3,4,4a,5,8,10-octahydro-9H-pyrazino[1′,2′:4,5][1,4]oxazino[2,3-f]isoindol-9-yl)piperidine-2,6-dione]",10 to 100,,
"O=C1CCC(Nc2ccc(C3CCN(CC4CCN(c5ccc([C@@H]6c7ccc(O)cc7CC[C@@H]6c6ccccc6)cc5)CC4)CC3)cc2F)C(=O)N1 (stereo partly drawn) [Compound B378, 3-((2-fluoro-4-(1-((1-(4-((1R,2S)-6-hydroxy-2-phenyl-1,2,3,4-tetrahydronaphthalen-1-yl)phenyl)piperidin-4-yl)methyl)piperidin-4-yl)phenyl)amino)piperidine-2,6-dione]",> 100,,
"O=C1CCC(Nc2ccc(C3CCN(CC4CC5(CCN(c6ccc([C@@H]7c8ccc(O)cc8CC[C@@H]7c7ccccc7)cc6)CC5)C4)CC3)cc2F)C(=O)N1 (stereo partly drawn) [Compound B379, 3-((2-fluoro-4-(1-((7-(4-((1R,2S)-6-hydroxy-2-phenyl-1,2,3,4-tetrahydronaphthalen-1-yl)phenyl)-7-azaspiro[3.5]nonan-2-yl)methyl)piperidin-4-yl)phenyl)amino)piperidine-2,6-dione]",> 100,,
"O=C1CCC(Nc2ccc(N3CCN(CC4CCN(c5ccc([C@@H]6c7ccc(O)cc7CC[C@@H]6c6ccccc6)cc5)CC4)CC3)c(F)c2)C(=O)N1 (stereo partly drawn) [Compound B380, 3-((3-fluoro-4-(4-((1-(4-((1R,2S)-6-hydroxy-2-phenyl-1,2,3,4-tetrahydronaphthalen-1-yl)phenyl)piperidin-4-yl)methyl)piperazin-1-yl)phenyl)amino)piperidine-2,6-dione]",> 100,,
"O=C1CCC(Nc2ccc(N3CCN(CC4CC5(CCN(c6ccc([C@@H]7c8ccc(O)cc8CC[C@@H]7c7ccccc7)cc6)CC5)C4)CC3)c(F)c2)C(=O)N1 (stereo partly drawn) [Compound B381, 3-((3-fluoro-4-(4-((7-(4-((1R,2S)-6-hydroxy-2-phenyl-1,2,3,4-tetrahydronaphthalen-1-yl)phenyl)-7-azaspiro[3.5]nonan-2-yl)methyl)piperazin-1-yl)phenyl)amino)piperidine-2,6-dione]",> 100,,
"O=C1CCC(Nc2ccc(N3CCN(CC4CCC5(CCN(c6ccc([C@@H]7c8ccc(O)cc8CC[C@@H]7c7ccccc7)cc6)CC5)OC4)CC3)c(F)c2)C(=O)N1 (stereo partly drawn) [Compound B382, 3-((3-fluoro-4-(4-((9-(4-((1R,2S)-6-hydroxy-2-phenyl-1,2,3,4-tetrahydronaphthalen-1-yl)phenyl)-1-oxa-9-azaspiro[5.5]undecan-3-yl)methyl)piperazin-1-yl)phenyl)amino)piperidine-2,6-dione]",> 100,,

# Now from value to compound, other results behind:
DC50 (ER) [nM],SMILES,IC50 [1] [nM],IC50 ([1]; T47D cell line) [nM]
10 to 100,"CN(C(=O)c1ccc2c(c1)OC[C@H]1CN(C(=O)CN3CCC4(CC3)CN(c3ccc(C5c6ccc(O)cc6CCC5c5ccccc5)cc3)C4)CCN21)C1CCC(=O)NC1=O (stereo in doubt) [Compound B223, (4aR)-N-(2,6-dioxopiperidin-3-yl)-3-(2-(2-(4-((1S,2R)-6-hydroxy-2-phenyl-1,2,3,4-tetrahydronaphthalen-1-yl)phenyl)-2,7-diazaspiro[3.5]nonan-7-yl)acetyl)-N-methyl-1,2,3,4,4a,5-hexahydrobenzo[b]pyrazino[1,2-d][1,4]oxazine-8-carboxamide]",,> 10
< 10,"O=C1CCC(N2Cc3cc4c(cc3C2=O)OC[C@@H]2CN(C(=O)[C@H]3CC[C@@H](CN5CC(Nc6ccc([C@@H]7c8ccc(O)cc8CC[C@@H]7c7ccccc7)cc6)C5)CC3)CCN42)C(=O)N1 (stereo partly drawn) [Compound B140, 3-((S)-3-((1R,4S)-4-((3-((4-((1R,2S)-6-hydroxy-2-phenyl-1,2,3,4-tetrahydronaphthalen-1-yl)phenyl)amino)azetidin-1-yl)methyl)cyclohexane-1-carbonyl)-8-oxo-1,2,3,4,4a,5,8,10-octahydro-9H-pyrazino[1′,2′:4,5][1,4]oxazino[2,3-f]isoindol-9-yl)piperidine-2,6-dione]",,< 1
< 10,"O=C1CCC(N2Cc3cc4c(cc3C2=O)OC[C@@H]2CN(C(=O)[C@H]3CC[C@H](CN5CCN(c6ccc([C@@H]7c8ccc(O)cc8CC[C@@H]7c7ccccc7)cc6)CC5)CC3)CCN42)C(=O)N1 (stereo partly drawn) [Compound B141, 3-((S)-3-((1R,4S)-4-((4-(4-((1R,2S)-6-hydroxy-2-phenyl-1,2,3,4-tetrahydronaphthalen-1-yl)phenyl)piperazin-1-yl)methyl)cyclohexane-1-carbonyl)-8-oxo-1,2,3,4,4a,5,8,10-octahydro-9H-pyrazino[1′,2′:4,5][1,4]oxazino[2,3-f]isoindol-9-yl)piperidine-2,6-dione]",,< 1
< 10,"O=C1CCC(N2Cc3cc4c(cc3C2=O)OC[C@@H]2CN(C(=O)CN3CC5(CCN(c6ccc([C@@H]7c8ccc(O)cc8CC[C@@H]7c7ccccc7)cc6)CC5)C3)CCN42)C(=O)N1 (stereo partly drawn) [Compound B142, 3-((S)-3-(2-(7-(4-((1R,2S)-6-hydroxy-2-phenyl-1,2,3,4-tetrahydronaphthalen-1-yl)phenyl)-2,7-diazaspiro[3.5]nonan-2-yl)acetyl)-8-oxo-1,2,3,4,4a,5,8,10-octahydro-9H-pyrazino[1′,2′: 4,5][1,4]oxazino[2,3-f]isoindol-9-yl)piperidine-2,6-dione]",,< 1
< 10,"O=C1CCC(N2Cc3cc4c(cc3C2=O)OC[C@@H]2CN(CC(=O)N3CC5(CCN(c6ccc([C@@H]7c8ccc(O)cc8CC[C@@H]7c7ccccc7)cc6)CC5)C3)CCN42)C(=O)N1 (stereo partly drawn) [Compound B143, 3-((S)-3-(2-(7-(4-((1R,2S)-6-hydroxy-2-phenyl-1,2,3,4-tetrahydronaphthalen-1-yl)phenyl)-2,7-diazaspiro[3.5]nonan-2-yl)-2-oxoethyl)-8-oxo-1,2,3,4,4a,5,8,10-octahydro-9H-pyrazino[1′,2′: 4,5][1,4]oxazino[2,3-f]isoindol-9-yl)piperidine-2,6-dione]",,< 1
< 10,"O=C1CC[C@H](N2Cc3c(ccc4c3OC[C@H]3CN(CC5CCC6(CN(c7ccc([C@@H]8c9ccc(O)cc9CC[C@@H]8c8ccccc8)cc7)C6)OC5)CCN43)C2=O)C(=O)N1 (stereo partly drawn) [Compound B348, (3S)-3-((5aR)-7-((2-(4-((1R,2S)-6-hydroxy-2-phenyl-1,2,3,4-tetrahydronaphthalen-1-yl)phenyl)-5-oxa-2-azaspiro[3.5]nonan-7-yl)methyl)-1-oxo-1,3,5,5a,6,7,8,9-octahydro-2H-pyrazino[1′,2′:4,5][1,4]oxazino[2,3-e]isoindol-2-yl)piperidine-2,6-dione]",,
10 to 100,"O=C1CC[C@H](N2Cc3cc4c(cc3C2=O)OC[C@@H]2CN(CC3CCC5(CN(c6ccc([C@@H]7c8ccc(O)cc8CC[C@@H]7c7ccccc7)cc6)C5)OC3)CCN42)C(=O)N1 (stereo partly drawn) [Compound B349, (3S)-3-((4aS)-3-((2-(4-((1R,2S)-6-hydroxy-2-phenyl-1,2,3,4-tetrahydronaphthalen-1-yl)phenyl)-5-oxa-2-azaspiro[3.5]nonan-7-yl)methyl)-8-oxo-1,2,3,4,4a,5,8,10-octahydro-9H-pyrazino[1′,2′:4,5][1,4]oxazino[2,3-f]isoindol-9-yl)piperidine-2,6-dione]",,
